Read-outs that look alike come from different tables or passages of the source.

The values that follow come from publication PMC6669961, “Design and Optimization of Thioglycosyl–naphthalimides as Efficient Inhibitors Against Human O-GlcNAcase” (Frontiers in Chemistry, 2019).

One experiment deals with hOGA. The settings on record: read-out: Ki against hOGA, cited from earlier work.
The next experiment addresses HsHexB. The following applies: read-out: Ki against HsHexB, cited from earlier work.
In experiment [1] the target is T1, human β-N-acetylhexosaminidase B (HsHexB) (Homo sapiens, UniProt P07686).
T1 construct: made in house; host or cells: Pichia pastoris
T1 sequence (P07686 122-556): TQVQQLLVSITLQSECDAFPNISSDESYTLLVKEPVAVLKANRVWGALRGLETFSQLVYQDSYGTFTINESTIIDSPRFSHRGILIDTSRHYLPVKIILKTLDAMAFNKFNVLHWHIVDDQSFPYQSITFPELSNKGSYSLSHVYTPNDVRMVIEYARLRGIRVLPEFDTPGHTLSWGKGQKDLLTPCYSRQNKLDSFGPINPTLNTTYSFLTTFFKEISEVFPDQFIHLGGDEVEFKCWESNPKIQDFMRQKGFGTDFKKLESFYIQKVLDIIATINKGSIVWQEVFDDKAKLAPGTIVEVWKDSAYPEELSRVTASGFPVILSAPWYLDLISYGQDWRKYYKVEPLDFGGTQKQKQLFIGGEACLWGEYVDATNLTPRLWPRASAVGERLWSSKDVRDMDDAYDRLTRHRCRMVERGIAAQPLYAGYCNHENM
In words: Enzyme inhibitory activity test against HsHexB (4-MU-GlcNAc substrate, end-point fluorescence; Dixon plots for Ki). In kind it is biochemical. The settings on record: pH 4.5; for inhibition at 100 µM: 100 μM inhibitor, 40 μM 4-MU-GlcNAc, 30°C, 30 min, read-out: Inhibition rate at 100 μM (%) HsHexB; for Ki: Dixon plots, 4-MU-GlcNAc 40, 20, 10 μM. Here is the method:
(§1) Human O-GlcNAcase (hOGA) was expressed in Escherichia coli BL21(DE3) and purified according to previous methods (Kong et al., [2016]). Human β-N-acetylhexosaminidase B (HsHexB) was overexpressed in Pichia pastoris and then purified as described previously (Shen et al., [2018a]).
(§2) All target compounds were evaluated for their inhibitory activities against hOGA and HsHexB in end-point experiments. 4-Methylumbelliferyl N-acetyl-β-D-glucosaminide (4-MU-GlcNAc) was used as substrate. In a final assay volume of 100 μL, inhibitor and substrate (40 μM) were mixed with Britton-Robinson buffer (hOGA, pH 6.5; HsHexB, pH 4.5) and enzyme; then, the assay components were incubated at 30°C for 30 min. Subsequently, the enzymatic reaction was terminated by the addition of 100 μL 0.5 M Na2CO3 solution. The fluorescence of the liberated 4-methylumbelliferone (Mu) was quantified at an excitation of 366 nm and emission of 445 nm on a Varioskan Flash microplate reader (Thermo Fisher Scientific, USA). To determine the inhibition constant (Ki), Dixon plots were performed by changing the concentration of the 4-MU-GlcNAc (40, 20, and 10 μM).

For the next experiment, the target named is T2, human O-GlcNAcase (hOGA) (Homo sapiens, UniProt O60502).
T2 construct: made in house; host or cells: Escherichia coli BL21(DE3)
T2 sequence (O60502 1-916): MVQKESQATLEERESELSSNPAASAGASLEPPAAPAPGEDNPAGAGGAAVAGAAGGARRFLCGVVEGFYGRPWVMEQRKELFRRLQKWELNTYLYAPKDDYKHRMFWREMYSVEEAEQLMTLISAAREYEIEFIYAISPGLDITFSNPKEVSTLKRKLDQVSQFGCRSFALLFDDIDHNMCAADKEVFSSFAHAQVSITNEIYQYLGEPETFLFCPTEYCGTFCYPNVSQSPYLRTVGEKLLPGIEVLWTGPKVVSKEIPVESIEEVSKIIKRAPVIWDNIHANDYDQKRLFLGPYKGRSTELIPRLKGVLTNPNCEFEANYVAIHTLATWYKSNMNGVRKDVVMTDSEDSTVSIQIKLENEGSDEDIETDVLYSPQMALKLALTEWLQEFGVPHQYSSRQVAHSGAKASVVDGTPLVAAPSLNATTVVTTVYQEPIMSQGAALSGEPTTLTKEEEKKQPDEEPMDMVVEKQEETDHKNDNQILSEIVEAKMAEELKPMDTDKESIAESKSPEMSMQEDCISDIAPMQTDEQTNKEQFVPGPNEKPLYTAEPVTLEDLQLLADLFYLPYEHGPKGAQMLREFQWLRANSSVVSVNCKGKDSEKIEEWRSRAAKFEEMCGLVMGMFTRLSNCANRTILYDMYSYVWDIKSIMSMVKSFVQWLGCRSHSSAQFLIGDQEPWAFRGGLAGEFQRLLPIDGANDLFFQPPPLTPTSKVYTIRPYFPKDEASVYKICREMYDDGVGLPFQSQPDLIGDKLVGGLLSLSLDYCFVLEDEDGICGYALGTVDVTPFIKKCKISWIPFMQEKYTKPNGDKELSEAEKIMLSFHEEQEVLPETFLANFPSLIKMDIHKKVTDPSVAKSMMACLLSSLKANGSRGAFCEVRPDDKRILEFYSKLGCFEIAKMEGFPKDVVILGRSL
In words: Enzyme inhibitory activity test against hOGA (4-MU-GlcNAc substrate, end-point fluorescence; Dixon plots for Ki). The settings on record: for inhibition at 100 µM: 100 μM inhibitor, 40 μM 4-MU-GlcNAc, 30°C, 30 min, read-out: Inhibition rate at 100 μM (%) hOGA; for inhibition at 100 µM / Ki: pH 6.5; for Ki: Dixon plots, 4-MU-GlcNAc 40, 20, 10 μM. In kind it is biochemical. Here is the method:
as §1, §2

The next experiment addresses HsHex. The following applies: read-out: Ki against HsHex, cited from earlier work.
Setting [2] is: lead compounds 15b (1) and 5c (2) of previous research, ref Chen et al., 2018, Shen et al., 2018a.
Where [3] appears, read: 13r (3) of previous research, ref Shen et al., 2018b.
Where [4] appears, read: GlcNAcstatin C, ref Dorfmueller et al., 2009.
The mark [5] stands for this setting: Gluco-nagstatin, ref Terinek and Vasella, 2005.

One may read the Ki as the equilibrium dissociation constant of an inhibitor or competing ligand from its target. On to `CC(=O)OC[C@H]1O[C@@H](SCC(=O)NCCCN2C(=O)c3cccc4c(N5CCCCC5)ccc(c34)C2=O)[C@@](O)(NC(=O)c2ccc(F)cc2)[C@@H](OC(C)=O)[C@@H]1OC(C)=O` [Compound 1], for which the Ki is 3.8 µM at hOGA (setting [2]) and 30.4 µM at HsHexB (setting [2]).
As usually defined, the inhibition is the percentage by which the read-out fell short of the control. Regarding `CC(=O)N[C@@H]1[C@@H](O)[C@H](O)[C@@H](CO)O[C@H]1SCC(=O)NCCCN1C(=O)c2cccc3cccc(c23)C1=O` [Compound 2, reference compound], the inhibition at 100 µM came out at 45.5 ± 0.5% in experiment [1] and 97.6 ± 0.9% on human O-GlcNAcase (hOGA). Also, the Ki in experiment [1] was greater than 100 µM; at hOGA (setting [2]), 3.46 µM; at HsHexB (setting [2]) it was greater than 100 µM; at human O-GlcNAcase (hOGA) it was 3.46 ± 0.11 µM.
Take `CC(=O)N[C@@H]1[C@@H](O)[C@H](O)[C@@H](CO)O[C@H]1SCCNCCCN1C(=O)c2cccc3c(N4CCCCC4)ccc(c23)C1=O` [Compound 3]: the values for the Ki on hOGA (setting [3]) and on HsHexB (setting [3]) were 0.6 µM and greater than 100 µM, respectively.
As for `CCCNC(=O)N[C@@H]1[C@@H](O)[C@H](O)[C@@H](CO)O[C@H]1SCC(=O)NCCCN1C(=O)c2cccc3c(N4CCCCC4)ccc(c23)C1=O` [Compound 17b], in experiment [1], the inhibition at 100 µM is 22.7 ± 0.2% and the Ki was greater than 100 µM. Moreover, at human O-GlcNAcase (hOGA), the inhibition at 100 µM worked out at 66.3 ± 0.6% and the Ki is 13.83 ± 0.02 µM.
As to `CNC(=O)N[C@@H]1[C@@H](O)[C@H](O)[C@@H](CO)O[C@H]1SCC(=O)NCCCN1C(=O)c2cccc3c(Br)ccc(c23)C1=O` [Compound 17c], in experiment [1], the inhibition at 100 µM worked out at 40.7 ± 0.7% and the Ki is greater than 100 µM. In addition, on human O-GlcNAcase (hOGA), the inhibition at 100 µM was determined as 96.7 ± 1.6% and the Ki stood at 2.17 ± 0.13 µM.
For `CCNC(=O)N[C@@H]1[C@@H](O)[C@H](O)[C@@H](CO)O[C@H]1SCC(=O)NCCCN1C(=O)c2cccc3c(Br)ccc(c23)C1=O` [Compound 17d], in experiment [1], the inhibition at 100 µM stood at 26.3 ± 1.1% and the Ki is greater than 100 µM. Also, on human O-GlcNAcase (hOGA), the inhibition at 100 µM was determined as 83.5 ± 0.9% and the Ki came to 7.11 ± 0.01 µM. For the same compound, the “decrease in inhibitory activity against hOGA” value on human O-GlcNAcase (hOGA) (NHC2H5 (17a or 17d) compared to NHCH3 (16h or 17c)) lay within 2 to 3 fold.
Consider `CC(C)C(=O)N[C@H]1c2nc(CCc3ccccc3)cn2[C@H](CO)[C@@H](O)[C@@H]1O` [GlcNAcstatin C], for which the Ki was 0.0044 µM on hOGA (setting [4]) and 0.55 µM at HsHex (setting [4]).
For `CC(=O)N[C@H]1c2nc(CC(=O)O)cn2[C@H](CO)[C@@H](O)[C@@H]1O` [Gluco-nagstatin], the values for the Ki on hOGA (setting [5]) and at HsHex (setting [5]) were 0.42 µM and 0.01 µM, respectively.
With `CC1=N[C@@H]2[C@@H](O)[C@H](O)[C@@H](CO)O[C@@H]2S1` [NGT, NAG-thiazoline], the Ki on HsHex (NGT, ref Knapp et al., 1996) is 0.07 µM.
For `CCNC1=N[C@@H]2[C@@H](O)[C@H](O)[C@@H](CO)O[C@@H]2S1` [Thiamet-G], at HsHex (Thiamet-G, ref Yuzwa et al., 2008), the Ki was 750 µM.
